# According to PubChem BioAssay (NCI):
#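 These data come from cells grown in 96-well plates and exposed to compound for 48 hours at five concentrations. TGI denotes the concentration required for complete inhibition of growth.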
# Experiments:
# Test in all cases: inhibition of tumour cell growth, NCI panel, 48 h
# RXF 393 renal = tested on: RXF 393 renal
# CAKI-1 renal = tested on: CAKI-1 renal
# EKVX NSCLC = tested on: EKVX NSCLC
# M14 melanoma = tested on: M14 melanoma
# HT29 colon = tested on: HT29 colon
# CCRF-CEM leukemia = tested on: CCRF-CEM leukemia
# SK-MEL-2 melanoma = tested on: SK-MEL-2 melanoma
# U251 CNS = tested on: U251 CNS
# SF-295 CNS = tested on: SF-295 CNS
# T-47D breast = tested on: T-47D breast
# NCI-H226 lung = tested on: NCI-H226 lung
# HS 578T breast = tested on: HS 578T breast
# PC-3 prostate = tested on: PC-3 prostate
# HOP-92 NSCLC = tested on: HOP-92 NSCLC
# A549 NSCLC = tested on: A549 NSCLC
# SK-MEL-28 melanoma = tested on: SK-MEL-28 melanoma
# SK-MEL-5 melanoma = tested on: SK-MEL-5 melanoma
# SK-OV-3 ovarian = tested on: SK-OV-3 ovarian
# NCI-H522 lung = tested on: NCI-H522 lung
# OVCAR-3 ovarian = tested on: OVCAR-3 ovarian
# HOP-62 NSCLC = tested on: HOP-62 NSCLC
# 786-0 renal = tested on: 786-0 renal
# A498 renal = tested on: A498 renal
# UO-31 renal = tested on: UO-31 renal
# OVCAR-5 ovarian = tested on: OVCAR-5 ovarian
# SR leukemia = tested on: SR leukemia
# NCI-H460 lung = tested on: NCI-H460 lung
# MDA-MB-435 = tested on: MDA-MB-435
# NCI-H23 lung = tested on: NCI-H23 lung
# IGROV1 ovarian = tested on: IGROV1 ovarian
# HCT-15 colon = tested on: HCT-15 colon
# SNB-19 CNS = tested on: SNB-19 CNS
# MALME-3M melanoma = tested on: MALME-3M melanoma
# TK-10 renal = tested on: TK-10 renal
# SNB-75 CNS = tested on: SNB-75 CNS
# SF-539 CNS = tested on: SF-539 CNS
# OVCAR-8 ovarian = tested on: OVCAR-8 ovarian
# UACC-257 melanoma = tested on: UACC-257 melanoma
# COLO 205 colon = tested on: COLO 205 colon
# MCF7 breast = tested on: MCF7 breast
# UACC-62 melanoma = tested on: UACC-62 melanoma
# SN12C renal = tested on: SN12C renal
# SW-620 colon = tested on: SW-620 colon
# HCC-2998 colon = tested on: HCC-2998 colon
# MOLT-4 leukemia = tested on: MOLT-4 leukemia
# K-562 leukemia = tested on: K-562 leukemia
# DU-145 prostate = tested on: DU-145 prostate
# HL-60(TB) leukemia = tested on: HL-60(TB) leukemia
# ACHN renal = tested on: ACHN renal
# LOX IMVI melanoma = tested on: LOX IMVI melanoma
# MDA-MB-231 breast = tested on: MDA-MB-231 breast
# HCT-116 colon = tested on: HCT-116 colon
# KM12 colon = tested on: KM12 colon
# MDA-N = tested on: MDA-N
# NCI/ADR-RES ovarian = tested on: NCI/ADR-RES ovarian
# SF-268 CNS = tested on: SF-268 CNS
# OVCAR-4 ovarian = tested on: OVCAR-4 ovarian
# BT-549 breast = tested on: BT-549 breast
# RPMI-8226 leukemia = tested on: RPMI-8226 leukemia
smiles,measurement,setting,value
c1ccc([P+](CCN2Cc3ccccc3C2)(c2ccccc2)c2ccccc2)cc1,TGI,RXF 393 renal,22.3 µM
same,TGI,CAKI-1 renal,> 100 µM
same,TGI,EKVX NSCLC,> 100 µM
same,TGI,M14 melanoma,23 µM
same,TGI,HT29 colon,22.2 µM
same,TGI,CCRF-CEM leukemia,40.5 µM
same,TGI,SK-MEL-2 melanoma,5.41 µM
same,TGI,U251 CNS,19.5 µM
same,TGI,SF-295 CNS,83.9 µM
same,TGI,T-47D breast,24.3 µM
same,TGI,NCI-H226 lung,31.7 µM
same,TGI,HS 578T breast,> 100 µM
same,TGI,PC-3 prostate,> 100 µM
same,TGI,HOP-92 NSCLC,6.41 µM
same,TGI,A549 NSCLC,> 100 µM
same,TGI,SK-MEL-28 melanoma,9.6 µM
same,TGI,SK-MEL-5 melanoma,11.3 µM
same,TGI,SK-OV-3 ovarian,66.2 µM
same,TGI,NCI-H522 lung,12.2 µM
same,TGI,OVCAR-3 ovarian,18.1 µM
same,TGI,HOP-62 NSCLC,45.3 µM
same,TGI,786-0 renal,44.4 µM
same,TGI,A498 renal,55.6 µM
same,TGI,UO-31 renal,34.6 µM
same,TGI,OVCAR-5 ovarian,57 µM
same,TGI,SR leukemia,52 µM
same,TGI,NCI-H460 lung,> 100 µM
same,TGI,MDA-MB-435,13.7 µM
same,TGI,NCI-H23 lung,> 100 µM
same,TGI,IGROV1 ovarian,5.87 µM
same,TGI,HCT-15 colon,36.2 µM
same,TGI,SNB-19 CNS,> 100 µM
same,TGI,MALME-3M melanoma,25.1 µM
same,TGI,TK-10 renal,41.5 µM
same,TGI,SNB-75 CNS,8.71 µM
same,TGI,SF-539 CNS,24.4 µM
same,TGI,OVCAR-8 ovarian,7.95 µM
same,TGI,UACC-257 melanoma,12.4 µM
same,TGI,COLO 205 colon,3.45 µM
same,TGI,MCF7 breast,14.4 µM
same,TGI,UACC-62 melanoma,13.1 µM
same,TGI,SN12C renal,32.8 µM
same,TGI,SW-620 colon,25.8 µM
same,TGI,HCC-2998 colon,15.9 µM
same,TGI,MOLT-4 leukemia,> 100 µM
same,TGI,K-562 leukemia,> 100 µM
same,TGI,DU-145 prostate,45.6 µM
same,TGI,HL-60(TB) leukemia,10.5 µM
same,TGI,ACHN renal,23.1 µM
same,TGI,LOX IMVI melanoma,33 µM
same,TGI,MDA-MB-231 breast,16.2 µM
same,TGI,HCT-116 colon,20.9 µM
same,TGI,KM12 colon,16 µM
same,TGI,MDA-N,14.3 µM
same,TGI,NCI/ADR-RES ovarian,> 100 µM
same,TGI,SF-268 CNS,30.1 µM
CC1(CO)OC(n2cnc3cncnc32)CC1O (configuration not stated),TGI,OVCAR-4 ovarian,> 100 µM
same,TGI,RXF 393 renal,> 100 µM
same,TGI,CAKI-1 renal,> 100 µM
same,TGI,EKVX NSCLC,> 100 µM
same,TGI,M14 melanoma,> 100 µM
same,TGI,HT29 colon,> 100 µM
same,TGI,CCRF-CEM leukemia,> 100 µM
same,TGI,SK-MEL-2 melanoma,> 100 µM
same,TGI,U251 CNS,> 100 µM
same,TGI,SF-295 CNS,> 100 µM
same,TGI,T-47D breast,> 100 µM
same,TGI,NCI-H226 lung,> 100 µM
same,TGI,PC-3 prostate,> 100 µM
same,TGI,HOP-92 NSCLC,> 100 µM
same,TGI,A549 NSCLC,> 100 µM
same,TGI,SK-MEL-28 melanoma,> 100 µM
same,TGI,SK-MEL-5 melanoma,> 100 µM
same,TGI,SK-OV-3 ovarian,> 100 µM
same,TGI,NCI-H522 lung,> 100 µM
same,TGI,OVCAR-3 ovarian,> 100 µM
same,TGI,HOP-62 NSCLC,> 100 µM
same,TGI,786-0 renal,> 100 µM
same,TGI,A498 renal,> 100 µM
same,TGI,UO-31 renal,> 100 µM
same,TGI,OVCAR-5 ovarian,> 100 µM
same,TGI,SR leukemia,> 100 µM
same,TGI,NCI-H460 lung,> 100 µM
same,TGI,MDA-MB-435,> 100 µM
same,TGI,NCI-H23 lung,> 100 µM
same,TGI,IGROV1 ovarian,> 100 µM
same,TGI,HCT-15 colon,> 100 µM
same,TGI,SNB-19 CNS,> 100 µM
same,TGI,MALME-3M melanoma,> 100 µM
same,TGI,TK-10 renal,> 100 µM
same,TGI,SF-539 CNS,> 100 µM
same,TGI,OVCAR-8 ovarian,> 100 µM
same,TGI,BT-549 breast,> 100 µM
same,TGI,UACC-257 melanoma,> 100 µM
same,TGI,COLO 205 colon,> 100 µM
same,TGI,MCF7 breast,> 100 µM
same,TGI,UACC-62 melanoma,> 100 µM
same,TGI,SN12C renal,> 100 µM
same,TGI,SW-620 colon,> 100 µM
same,TGI,HCC-2998 colon,> 100 µM
same,TGI,MOLT-4 leukemia,> 100 µM
same,TGI,K-562 leukemia,> 100 µM
same,TGI,DU-145 prostate,> 100 µM
same,TGI,HL-60(TB) leukemia,> 100 µM
same,TGI,ACHN renal,> 100 µM
same,TGI,MDA-MB-231 breast,> 100 µM
same,TGI,HCT-116 colon,> 100 µM
same,TGI,RPMI-8226 leukemia,> 100 µM
same,TGI,KM12 colon,> 100 µM
same,TGI,MDA-N,> 100 µM
same,TGI,NCI/ADR-RES ovarian,> 100 µM
same,TGI,SF-268 CNS,> 100 µM
CCOC(=O)N/N=C(\Cc1ccccc1)OCC,TGI,OVCAR-4 ovarian,> 100 µM
same,TGI,RXF 393 renal,> 100 µM
same,TGI,EKVX NSCLC,> 100 µM
same,TGI,M14 melanoma,> 100 µM
same,TGI,HT29 colon,> 100 µM
same,TGI,CCRF-CEM leukemia,> 100 µM
same,TGI,SK-MEL-2 melanoma,> 100 µM
same,TGI,U251 CNS,> 100 µM
same,TGI,SF-295 CNS,> 100 µM
same,TGI,PC-3 prostate,> 100 µM
same,TGI,HOP-92 NSCLC,> 100 µM
same,TGI,A549 NSCLC,> 100 µM
same,TGI,SK-MEL-5 melanoma,> 100 µM
same,TGI,SK-OV-3 ovarian,> 100 µM
same,TGI,NCI-H522 lung,> 100 µM
same,TGI,OVCAR-3 ovarian,> 100 µM
same,TGI,HOP-62 NSCLC,> 100 µM
same,TGI,786-0 renal,> 100 µM
same,TGI,UO-31 renal,> 100 µM
same,TGI,OVCAR-5 ovarian,> 100 µM
same,TGI,SR leukemia,> 100 µM
same,TGI,MDA-MB-435,> 100 µM
same,TGI,NCI-H23 lung,> 100 µM
same,TGI,IGROV1 ovarian,> 100 µM
same,TGI,HCT-15 colon,> 100 µM
same,TGI,SNB-19 CNS,> 100 µM
same,TGI,TK-10 renal,> 100 µM
same,TGI,SNB-75 CNS,> 100 µM
same,TGI,SF-539 CNS,> 100 µM
same,TGI,OVCAR-8 ovarian,> 100 µM
same,TGI,BT-549 breast,> 100 µM
same,TGI,UACC-257 melanoma,> 100 µM
same,TGI,COLO 205 colon,> 100 µM
same,TGI,MCF7 breast,> 100 µM
same,TGI,UACC-62 melanoma,> 100 µM
same,TGI,SN12C renal,> 100 µM
same,TGI,SW-620 colon,> 100 µM
same,TGI,HCC-2998 colon,> 100 µM
same,TGI,MOLT-4 leukemia,> 100 µM
same,TGI,K-562 leukemia,> 100 µM
same,TGI,DU-145 prostate,> 100 µM
same,TGI,ACHN renal,> 100 µM
same,TGI,LOX IMVI melanoma,> 100 µM
same,TGI,MDA-MB-231 breast,> 100 µM
same,TGI,HCT-116 colon,> 100 µM
same,TGI,RPMI-8226 leukemia,> 100 µM
same,TGI,KM12 colon,> 100 µM
same,TGI,MDA-N,> 100 µM
same,TGI,NCI/ADR-RES ovarian,> 100 µM
same,TGI,SF-268 CNS,> 100 µM
